In US12668600B2 (Kumquat Biosciences Inc., priority 2023, dated 2026):

Assays:
Format in all cases: biochemical
[1] = biological target: T1, KRAS G12V (Homo sapiens, UniProt P01116, G12V); assay: HTRF KRAS-SOS1 interaction assay, KRAS G12V; settings: binned ≤2 μM / >2 μM, read-out: Inhibition of KRAS G12V (IC50)
T1 construct: made in house; host or cells: E. coli, e.g. BL21 (DE3)
Summary of the method: (§1)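 Inhibition of the KRAS–SOS1 interaction was measured by HTRF (ex 337, em 620/665 nm) after ≥~10 min incubation. Donor: anti-GST-Eu on GST-KRAS; acceptor: anti-6His-XL665 on His-hSOS1, in HEPES pH 7.4 buffer with DTT, BSA and Igepal. Compounds in duplicate at 0.01–10 μM; IC50 from emission ratio.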

[2] = biological target: T2, KRAS G12D (Homo sapiens, UniProt P01116, G12D); assay: HTRF KRAS-SOS1 interaction assay, KRAS G12D; settings: binned ≤2 μM / >2 μM, read-out: Inhibition of KRAS G12D (IC50)
T2 construct: made in house; host or cells: E. coli, e.g. BL21 (DE3)
T2 sequence (P01116 1-188 isoform P01116-2 G12D): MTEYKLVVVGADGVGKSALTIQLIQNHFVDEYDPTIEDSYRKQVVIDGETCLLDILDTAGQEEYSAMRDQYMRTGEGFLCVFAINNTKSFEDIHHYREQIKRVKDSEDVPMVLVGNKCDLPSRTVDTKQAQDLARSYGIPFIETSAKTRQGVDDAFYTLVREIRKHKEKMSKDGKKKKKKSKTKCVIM
Summary of the method: as §1

[3] = biological target: T3, KRAS G12S (Homo sapiens, UniProt P01116, G12S); assay: HTRF KRAS-SOS1 interaction assay, KRAS G12S; settings: binned ≤2 μM / >2 μM, read-out: Inhibition of KRAS G12S (IC50)
T3 construct: made in house; host or cells: E. coli, e.g. BL21 (DE3)
T3 sequence (P01116 1-188 isoform P01116-2 G12S): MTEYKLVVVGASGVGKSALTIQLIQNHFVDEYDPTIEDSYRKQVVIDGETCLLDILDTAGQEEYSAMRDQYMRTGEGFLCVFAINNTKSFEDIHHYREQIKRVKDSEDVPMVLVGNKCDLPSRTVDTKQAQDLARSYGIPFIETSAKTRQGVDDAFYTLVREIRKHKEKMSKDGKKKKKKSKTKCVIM
Summary of the method: as §1

[4] = biological target: T4, KRAS WT (Homo sapiens, UniProt P01116); assay: HTRF KRAS-SOS1 interaction assay, wildtype KRAS; settings: binned ≤2 μM / >2 μM, read-out: Inhibition of KRAS WT (IC50)
T4 construct: made in house; host or cells: E. coli, e.g. BL21 (DE3)
T4 sequence (P01116 1-188 isoform P01116-2): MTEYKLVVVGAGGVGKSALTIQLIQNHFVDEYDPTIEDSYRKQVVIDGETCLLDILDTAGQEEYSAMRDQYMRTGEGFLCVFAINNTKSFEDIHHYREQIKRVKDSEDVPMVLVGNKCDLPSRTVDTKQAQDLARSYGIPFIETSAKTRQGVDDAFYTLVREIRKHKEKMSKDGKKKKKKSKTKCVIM
Summary of the method: as §1

Measured: IC50

T1 sequence (P01116 1-188 isoform P01116-2 G12V): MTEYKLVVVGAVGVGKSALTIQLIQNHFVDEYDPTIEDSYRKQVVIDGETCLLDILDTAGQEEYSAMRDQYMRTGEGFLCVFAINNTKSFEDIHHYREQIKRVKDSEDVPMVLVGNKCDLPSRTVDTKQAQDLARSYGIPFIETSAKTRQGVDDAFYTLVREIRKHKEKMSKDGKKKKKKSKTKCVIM

CNc1sc2c(F)ccc(-c3c(C(F)(F)F)c4c5c(nc(OC[C@@]67CCCN6C[C@H](F)C7)nc5c3F)N([C@H](CCC3CCOCC3)c3cccnc3N)CCO4)c2c1C#N [Compound 709, 4-(4-((R)-1-(2-aminopyridin-3-yl)-3-(tetrahydro-2H-pyran-4-yl)propyl)-10-fluoro-2-(((2R,7aS)-2-fluorotetrahydro-1H-pyrrolizin-7a(5H)-yl)methoxy)-8-(trifluoromethyl)-5,6-dihydro-4H-[1,4]oxazepino[5,6,7-de]quinazolin-9-yl)-7-fluoro-2-(methylamino)benzo[b]thiophene-3-carbonitrile]
≤ 2 µM: all assays above

C=C1CN2CCC[C@@]2(COc2nc3c4c(c(C(F)(F)F)c(-c5ccc(F)c6sc(N)c(C#N)c56)c(F)c4n2)OCCN3[C@H](C)c2cccnc2N)C1 [Compound 621, 2-amino-4-(4-((R)-1-(2-aminopyridin-3-yl)ethyl)-10-fluoro-2-(((S)-2-methylenetetrahydro-1H-pyrrolizin-7a(5H)-yl)methoxy)-8-(trifluoromethyl)-5,6-dihydro-4H-[1,4]oxazepino[5,6,7-de]quinazolin-9-yl)-7-fluorobenzo[b]thiophene-3-carbonitrile]
≤ 2 µM: all assays above

C[C@H](c1cccnc1N)N1CCOc2c(C(F)(F)F)c(-c3ccc(F)c4sc(N)c(C#N)c34)c(F)c3nc(OCC4(CN5CCC6(CC5)CC6(F)F)CC4)nc1c23 (atropisomer, axis not shown) [Compound 613, 2-amino-4-((S)-4-((R)-1-(2-aminopyridin-3-yl)ethyl)-2-((1-((1,1-difluoro-6-azaspiro[2.5]octan-6-yl)methyl)cyclopropyl)methoxy)-10-fluoro-8-(trifluoromethyl)-5,6-dihydro-4H-[1,4]oxazepino[5,6,7-de]quinazolin-9-yl)-7-fluorobenzo[b]thiophene-3-carbonitrile]
≤ 2 µM: all assays above

C#Cc1c(F)ccc2cc(O)cc(-c3nc4c5c(nc(OC[C@@H]6CCCN6C)nc5c3F)N(C(C)c3cccnc3N)CCO4)c12 (single isomer, unassigned) [Compound 728]
≤ 2 µM: all assays above

C[C@H](Oc1nc2c3c(nc(-c4ccc(F)c5sc(N)c(C#N)c45)c(F)c3n1)OCCN2[C@H](C)c1cccnc1N)C1CCCN1C (single isomer, unassigned) [Compound 670]
≤ 2 µM: all assays above

N#Cc1c(N)sc2c(F)ccc(-c3c(Cl)c4c5c(nc(OC[C@@]67CCCN6C[C@H](F)C7)nc5c3F)N([C@@H](c3cccnc3N)C(F)(F)F)CCO4)c12 [Compound 833, 2-amino-4-(4-((S)-1-(2-aminopyridin-3-yl)-2,2,2-trifluoroethyl)-8-chloro-10-fluoro-2-(((2R,7aS)-2-fluorotetrahydro-1H-pyrrolizin-7a(5H)-yl)methoxy)-5,6-dihydro-4H-[1,4]oxazepino[5,6,7-de]quinazolin-9-yl)-7-fluorobenzo[b]thiophene-3-carbonitrile]
≤ 2 µM: all assays above

N#Cc1c(N)sc2c(F)ccc(-c3c(C(F)(F)F)c4c5c(nc(OCC6(CN7CCC8(CC7)CC8(F)F)CC6)nc5c3F)N([C@H](CCC(F)(F)F)c3cccnc3N)CCO4)c12 [Compound 637, 2-amino-4-(4-((R)-1-(2-aminopyridin-3-yl)-4,4,4-trifluorobutyl)-2-((1-((1,1-difluoro-6-azaspiro[2.5]octan-6-yl)methyl)cyclopropyl)methoxy)-10-fluoro-8-(trifluoromethyl)-5,6-dihydro-4H-[1,4]oxazepino[5,6,7-de]quinazolin-9-yl)-7-fluorobenzo[b]thiophene-3-carbonitrile]
≤ 2 µM: all assays above

CC(=O)c1c(F)ccc2cc(O)cc(-c3nc4c5c(nc(OC[C@@H]6CCCN6C)nc5c3F)N(C(C)c3cccnc3N)CCO4)c12 (mixture of isomers) [Compound 801, 1-(8-(10-(1-(2-aminopyridin-3-yl)ethyl)-4-fluoro-2-(((S)-1-methylpyrrolidin-2-yl)methoxy)-9,10-dihydro-8H-7-oxa-1,3,6,10-tetraazacyclohepta[de]naphthalen-5-yl)-2-fluoro-6-hydroxynaphthalen-1-yl)ethan-1-one]
≤ 2 µM: all assays above

N#Cc1c(N)sc2c(F)ccc(-c3c(C(F)(F)F)c4c5c(nc(OC[C@@]67CCCN6C[C@@]6(CC6(F)F)C7)nc5c3F)N([C@H](CC3CCOCC3)c3cccnc3N)CCO4)c12 [Compound 855, 2-amino-4-(4-((R)-1-(2-aminopyridin-3-yl)-2-(tetrahydro-2H-pyran-4-yl)ethyl)-2-(((1S,7a′S)-2,2-difluorodihydro-1′H,3′H-spiro[cyclopropane-1,2′-pyrrolizin]-7a′(5′H)-yl)methoxy)-10-fluoro-8-(trifluoromethyl)-5,6-dihydro-4H-[1,4]oxazepino[5,6,7-de]quinazolin-9-yl)-7-fluorobenzo[b]thiophene-3-carbonitrile]
≤ 2 µM: all assays above

C[C@H](c1cccnc1N)N1CCOc2c(C(F)(F)F)c(-c3ccc(F)c4sc(N)c(C#N)c34)c(F)c3nc(OCC4(CN5CC[C@@H](F)C5)CC4)nc1c23 [Compound 698, 2-amino-4-(4-((R)-1-(2-aminopyridin-3-yl)ethyl)-10-fluoro-2-((1-(((R)-3-fluoropyrrolidin-1-yl)methyl)cyclopropyl)methoxy)-8-(trifluoromethyl)-5,6-dihydro-4H-[1,4]oxazepino[5,6,7-de]quinazolin-9-yl)-7-fluorobenzo[b]thiophene-3-carbonitrile]
≤ 2 µM: all assays above

C=CC[C@H](c1cccnc1N)N1C[C@H](C)Oc2nc(-c3cc(N)c(F)c(C)c3C(F)(F)F)c(F)c3nc(OC[C@@]45CCCN4C[C@H](F)C5)nc1c23 (single isomer, unassigned) [Compound 746]
≤ 2 µM: all assays above

C=C[C@H]1COc2c(Cl)c(-c3ccc(F)c4sc(N)c(C#N)c34)c(F)c3nc(OC[C@@]45CCCN4C[C@H](F)C5)nc(c23)N1C(C)c1cccnc1N (single isomer, unassigned) [Compound 732]
≤ 2 µM: all assays above

Cc1c(F)c(N)cc(-c2nc3c4c(nc(OC[C@@H]5CCCN5C)nc4c2F)N([C@H](C)c2cccnc2N)CCO3)c1C(F)(F)F (single isomer, unassigned) [Compound 695]
≤ 2 µM: all assays above

CO[C@H]1CCN(C)[C@@H]1COc1nc2c3c(c(C(F)(F)F)c(-c4ccc(F)c5sc(N)c(C#N)c45)c(F)c3n1)OCCN2[C@H](C)c1cc(F)cnc1N (single isomer, unassigned) [Compound 774]
≤ 2 µM: all assays above

C[C@H](c1cccnc1N)N1CCOc2c(Cl)c(-c3ccc(F)c4sc(N)c(C#N)c34)c(F)c3nc(OC[C@]45CCCN4[C@H](CN)CC5)nc1c23 [Compound 915, 2-amino-4-(2-(((3S,7aR)-3-(aminomethyl)tetrahydro-1H-pyrrolizin-7a(5H)-yl)methoxy)-4-((R)-1-(2-aminopyridin-3-yl)ethyl)-8-chloro-10-fluoro-5,6-dihydro-4H-[1,4]oxazepino[5,6,7-de]quinazolin-9-yl)-7-fluorobenzo[b]thiophene-3-carbonitrile]
≤ 2 µM: all assays above
